Test results from PubChem BioAssay AID1845210 (Molecular Pharmacology Branch, DTP, NCI, 2023).

Test system: NCI-H226 complex tumor spheroids, viability
Assay: Anticancer human tumor NCI-H226 cell line growth inhibition;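 also: spheroids exposed to compound for 7 days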;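 as to viability, T/C: 100% = DMSO vehicle control viability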
Details: for IC50: curve of first compound; for viability, T/C: stronger effect = lower value; active = viability on the fitted dose curve at most 10% of control; inactive = the rest
In short: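 Complex tumor spheroids combined malignant cells with endothelial cells and mesenchymal stem cells. DNA-damaging drugs and DNA repair inhibitors were tested alone and in combination, at half-log dilutions down from clinical Cmax (top 10 microM if Cmax unknown), 0.25% DMSO final.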

CC(C)n1c(=O)n(C)c2cnc3cc(F)c(-c4ccc(OCCCN5CCCCC5)nc4)cc3c21 + CC[C@@]1(O)C(=O)OCc2c1cc1n(c2=O)Cc2cc3c(CN(C)C)c(O)ccc3nc2-1
5.24 µM: IC50 (second compound 0.03 µM)
4.41 µM: IC50 (second compound 0.0949 µM)
5.72 µM: IC50 (second compound 0.00949 µM)
6.02 µM: IC50 (second compound 0.003 µM)
inactive: viability, T/C (second compound 0.003 µM, first compound 0.0316 µM) 99.8% | viability, T/C (second compound 0.003 µM, first compound 0.1 µM) 92.3% | viability, T/C (second compound 0.003 µM, first compound 0.316 µM) 94.5% | viability, T/C (second compound 0.003 µM, first compound 1 µM) 93.9% | viability, T/C (second compound 0.003 µM, first compound 3.16 µM) 82.3% | viability, T/C (second compound 0.003 µM, first compound 10 µM) 24.5% | viability, T/C (second compound 0.00949 µM, first compound 0.0316 µM) 86.4% | viability, T/C (second compound 0.00949 µM, first compound 0.1 µM) 86.5% | viability, T/C (second compound 0.00949 µM, first compound 0.316 µM) 86.5% | viability, T/C (second compound 0.00949 µM, first compound 1 µM) 86.3% | viability, T/C (second compound 0.00949 µM, first compound 3.16 µM) 84% | viability, T/C (second compound 0.00949 µM, first compound 10 µM) 17.9% | viability, T/C (second compound 0.03 µM, first compound 0.0316 µM) 81.4% | viability, T/C (second compound 0.03 µM, first compound 0.1 µM) 78.3% | viability, T/C (second compound 0.03 µM, first compound 0.316 µM) 83.2% | viability, T/C (second compound 0.03 µM, first compound 1 µM) 75.4% | viability, T/C (second compound 0.03 µM, first compound 3.16 µM) 73.2% | viability, T/C (second compound 0.03 µM, first compound 10 µM) 21% | viability, T/C (second compound 0.0949 µM, first compound 0.0316 µM) 87.4% | viability, T/C (second compound 0.0949 µM, first compound 0.1 µM) 85.3% | viability, T/C (second compound 0.0949 µM, first compound 0.316 µM) 75.7% | viability, T/C (second compound 0.0949 µM, first compound 1 µM) 77.9% | viability, T/C (second compound 0.0949 µM, first compound 3.16 µM) 61.5% | viability, T/C (second compound 0.0949 µM, first compound 10 µM) 22.8% | viability, T/C (second compound 0.3 µM, first compound 0.0316 µM) 92.2% | viability, T/C (second compound 0.3 µM, first compound 0.1 µM) 84.3% | viability, T/C (second compound 0.3 µM, first compound 0.316 µM) 73.4% | viability, T/C (second compound 0.3 µM, first compound 1 µM) 84.1% | viability, T/C (second compound 0.3 µM, first compound 3.16 µM) 71.8% | viability, T/C (second compound 0.3 µM, first compound 10 µM) 17%
5.01 µM: IC50 (second compound 0.3 µM)
